Measurements reported in US4732970A, “Antitumor amino acid and peptide derivatives of 1,4-bis(aminoalkyl and hydroxy-aminoalkyl)amino)-5,8-dihydroxyanthraquinones” (priority 1986, dated 1988).

Tested on: lymphocytic leukemia P388
Experiment: Lymphocytic Leukemia P388 Test
Assay type: in vivo, BDF1 mice
Conditions: for Median Survival: BDF1 mice; for T/C × 100 (%): ratio of survival time treated/control
In short: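 BDF1 mice (5–6 per group) were inoculated i.p. with 10^6 P388 cells, then dosed i.p. on days 1, 5 and 9 at various doses. Survival was followed for 60 days, and median survival time and the treated/control (T/C) survival ratio were calculated.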

[1] = dose 0.75 mg/kg intraperitoneally on days 1, 5 and 9
[2] = dose 1.5 mg/kg intraperitoneally on days 1, 5 and 9
[3] = dose 3 mg/kg intraperitoneally on days 1, 5 and 9

Row | SMILES | Median Survival [1] | T/C × 100 (%) [1] | Median Survival [2] | T/C × 100 (%) [2] | Median Survival [3] | T/C × 100 (%) [3]
1 | C[C@H](NC(=O)[C@@H](N)CO)C(=O)NCCNc1ccc(NCCNC(=O)[C@H](C)NC(=O)[C@@H](N)CO)c2c1C(=O)c1c(O)ccc(O)c1C2=O.O=C(O)C(F)(F)F.O=C(O)C(F)(F)F [Example 76, N,N'-[(9,10-Dihydro-5,8-dihydroxy-9,10-dioxo-1,4-anthracenediyl)bis(imino-2,1-ethanediyl)]bis[L-seryl-L-alaninamide]bis(trifluoroacetate)] | 22.0 days | 183% | 22.5 days | 188% | 22.5 days | 188%
2 | C[C@H](NC(=O)[C@H](CO)NC(=O)[C@H](CC(=O)OC(C)(C)C)NC(=O)OCC1c2ccccc2-c2ccccc21)C(=O)NCCNc1ccc(NCCNC(=O)[C@H](C)NC(=O)[C@H](CO)NC(=O)[C@H](CC(=O)OC(C)(C)C)NC(=O)OCC2c3ccccc3-c3ccccc32)c2c1C(=O)c1c(O)ccc(O)c1C2=O [Example 77, N,N'-[(9,10-Dihydro-5,8-dihydroxy-9,10-dioxo-1,4-anthracenediyl)bis(imino-2,1-ethanediyl)]bis[N-[(9H-fluoren-9-ylmethoxy)carbonyl]-L-α-aspartyl-L-seryl-L-alaninamide]bis(1,1-dimethylethyl)ester] | 20.0 days | 167% | 20.0 days | 167% | 22.5 days | 188%
3 | C[C@H](NC(=O)[C@H](CO)NC(=O)[C@@H](N)CC(=O)OC(C)(C)C)C(=O)NCCNc1ccc(NCCNC(=O)[C@H](C)NC(=O)[C@H](CO)NC(=O)[C@@H](N)CC(=O)OC(C)(C)C)c2c1C(=O)c1c(O)ccc(O)c1C2=O [Example 78, N,N'-[(9,10-Dihydro-5,8-dihydroxy-9,10-dioxo-1,4-anthracenediyl)bis(imino-2,1-ethanediyl)]bis[L-α-aspartyl-L-seryl-L-alaninamide]bis(1,1-dimethylethyl)ester] | 18.0 days | 150% | 23.0 days | 192% | 22.5 days | 188%
4 | C[C@H](NC(=O)[C@H](C)NC(=O)[C@H](CC(=O)OC(C)(C)C)NC(=O)OCC1c2ccccc2-c2ccccc21)C(=O)NCCNc1ccc(NCCNC(=O)[C@H](C)NC(=O)[C@H](C)NC(=O)[C@H](CC(=O)OC(C)(C)C)NC(=O)OCC2c3ccccc3-c3ccccc32)c2c1C(=O)c1c(O)ccc(O)c1C2=O [Example 79, N,N'-[(9,10-Dihydro-5,8-dihydroxy-9,10-dioxo-1,4-anthracenediyl)bis(imino-2,1-ethanediyl)]bis[N-[(9H-fluoren-9-ylmethoxy)carbonyl]-L-α-aspartyl-L-alanyl-L-alaninamide]bis(1,1-dimethylethyl)ester] | 18.5 days | 168% | 18.0 days | 164% | 19.0 days | 173%
5 | CC(NC(=O)C(N)CC(=O)OC(C)(C)C)C(=O)NC(C)C(=O)NCCNc1ccc(NCCNC(=O)C(C)NC(=O)C(C)NC(=O)C(N)CC(=O)OC(C)(C)C)c2c1C(=O)c1c(O)ccc(O)c1C2=O [Example 80, N,N'-[(9,10-Dihydro-5,8-dihydroxy-9,10-dioxo-1,4-anthracenediyl)bis(imino-2,1-ethanediyl)]bis[L-α-aspartyl-L-alanyl-L-alaninamide]bis(1,1-dimethylethyl)ester] | 19.0 days | 173% | 19.5 days | 177% | 26.0 days | 236%
6 | CC(C)C[C@H](NC(=O)[C@H](C)NC(=O)[C@H](CC(=O)OC(C)(C)C)NC(=O)OCC1c2ccccc2-c2ccccc21)C(=O)NCCNc1ccc(NCCNC(=O)[C@H](CC(C)C)NC(=O)[C@H](C)NC(=O)[C@H](CC(=O)OC(C)(C)C)NC(=O)OCC2c3ccccc3-c3ccccc32)c2c1C(=O)c1c(O)ccc(O)c1C2=O [Example 81, N,N'-[(9,10-Dihydro-5,8-dihydroxy-9,10-dioxo-1,4-anthracenediyl)bis(imino-2,1-ethanediyl)]bis[N-[(9H-fluoren-9-ylmethoxy)carbonyl]-L-α-aspartyl-L-alanyl-L-leucinamide]bis(1,1-dimethylethyl)ester] | 16.0 days | 145% | 18.5 days | 168% | 19.0 days | 173%
7 | CC(C)C[C@H](NC(=O)[C@H](C)NC(=O)[C@@H](N)CC(=O)OC(C)(C)C)C(=O)NCCNc1ccc(NCCNC(=O)[C@H](CC(C)C)NC(=O)[C@H](C)NC(=O)[C@@H](N)CC(=O)OC(C)(C)C)c2c1C(=O)c1c(O)ccc(O)c1C2=O [Example 82, N,N'-[(9,10-Dihydro-5,8-dihydroxy-9,10-dioxo-1,4-anthracenediyl)bis(imino-2,1-ethanediyl)]bis[L-α-aspartyl-L-alanyl-L-leucinamide]bis(1,1-dimethylethyl)ester] | 21.0 days | 191% | 19.0 days | 173% | 19.0 days | 173%
8 | C[C@H](NC(=O)[C@H](C)NC(=O)[C@@H](N)CC(=O)O)C(=O)NCCNc1ccc(NCCNC(=O)[C@H](C)NC(=O)[C@H](C)NC(=O)[C@@H](N)CC(=O)O)c2c1C(=O)c1c(O)ccc(O)c1C2=O.O=C(O)C(F)(F)F.O=C(O)C(F)(F)F [Example 83] | 22.0 days | 220% | 22.5 days | 225% | 38.5 days | 385%
9 | CC(C)C[C@H](NC(=O)[C@H](C)NC(=O)[C@@H](N)CC(=O)O)C(=O)NCCNc1ccc(NCCNC(=O)[C@H](CC(C)C)NC(=O)[C@H](C)NC(=O)[C@@H](N)CC(=O)O)c2c1C(=O)c1c(O)ccc(O)c1C2=O.O=C(O)C(F)(F)F.O=C(O)C(F)(F)F [Example 84, N,N'-[(9,10-Dihydro-5,8-dihydroxy-9,10-dioxo-1,4-anthracenediyl)bis(imino-2,1-ethanediyl)]bis[L-α-aspartyl-L-alanyl-L-leucinamide]bis(trifluoroacetate)] | 24.0 days | 240% | 21.5 days | 215% | 28.0 days | 280%
10 | Br.Br.N=C(N)NCCC[C@H](N)C(=O)NCCNc1ccc(NCCNC(=O)[C@@H](N)CCCNC(=N)N)c2c1C(=O)c1c(O)ccc(O)c1C2=O [Example 86, N,N'-[(9,10-Dihydro-5,8-dihydroxy-9,10-dioxo-1,4-anthracenediyl)bis(imino-2,1-ethanediyl)]-L-arginine, dihydrobromide] | 22.0 days | 200% | 27.0 days | 245% | 34.5 days | 314%
